Source: paper PMC8903829 (eLife, 2022)

Columns and labels:
[1] = target: T1, hNaV1.6 (Homo sapiens, UniProt Q9UQD0); experiment: Qube 384 automated patch-clamp, inactivated-state inhibition; format: cell-based; details: for hNav1.6 current in (352)/(Vehicle), mean: Inactivated (-45mV)
T1 construct: expression vector containing the full-length cDNA coding for specific human and mouse sodium channel α-subunit; expressed in transfected cells

[2] = target: T2, mNaV1.6 (Mus musculus, UniProt Q9WTU3); experiment: as above; format: cell-based
T2 construct: expression vector containing the full-length cDNA coding for specific human and mouse sodium channel α-subunit; expressed in transfected cells

[3] = target: T3, hNaV1.1 (Homo sapiens, UniProt P35498); experiment: as above; format: cell-based
T3 construct: expression vector containing the full-length cDNA coding for specific human and mouse sodium channel α-subunit; expressed in transfected cells

[4] = design: method as in Beatch et al., 2020; details: humans; ref Beatch et al., 2020; cited from earlier work
[5] = target: T4, mNaV1.1 (Mus musculus, UniProt A2APX8); experiment: Qube 384 automated patch-clamp, inactivated-state inhibition; format: cell-based
T4 construct: expression vector containing the full-length cDNA coding for specific human and mouse sodium channel α-subunit; expressed in transfected cells
Source text: (§1) All of the cell lines tested negative for mycoplasma.
(§2) Inorm(CPD)=(ICPD−Icontrol)/(ITTX−Icontrol).

[6] = target: T5, mNaV1.2 (Mus musculus, UniProt B1AWN6); experiment: as above; format: cell-based
T5 construct: expression vector containing the full-length cDNA coding for specific human and mouse sodium channel α-subunit; expressed in transfected cells
T5 sequence (B1AWN6 whole entry): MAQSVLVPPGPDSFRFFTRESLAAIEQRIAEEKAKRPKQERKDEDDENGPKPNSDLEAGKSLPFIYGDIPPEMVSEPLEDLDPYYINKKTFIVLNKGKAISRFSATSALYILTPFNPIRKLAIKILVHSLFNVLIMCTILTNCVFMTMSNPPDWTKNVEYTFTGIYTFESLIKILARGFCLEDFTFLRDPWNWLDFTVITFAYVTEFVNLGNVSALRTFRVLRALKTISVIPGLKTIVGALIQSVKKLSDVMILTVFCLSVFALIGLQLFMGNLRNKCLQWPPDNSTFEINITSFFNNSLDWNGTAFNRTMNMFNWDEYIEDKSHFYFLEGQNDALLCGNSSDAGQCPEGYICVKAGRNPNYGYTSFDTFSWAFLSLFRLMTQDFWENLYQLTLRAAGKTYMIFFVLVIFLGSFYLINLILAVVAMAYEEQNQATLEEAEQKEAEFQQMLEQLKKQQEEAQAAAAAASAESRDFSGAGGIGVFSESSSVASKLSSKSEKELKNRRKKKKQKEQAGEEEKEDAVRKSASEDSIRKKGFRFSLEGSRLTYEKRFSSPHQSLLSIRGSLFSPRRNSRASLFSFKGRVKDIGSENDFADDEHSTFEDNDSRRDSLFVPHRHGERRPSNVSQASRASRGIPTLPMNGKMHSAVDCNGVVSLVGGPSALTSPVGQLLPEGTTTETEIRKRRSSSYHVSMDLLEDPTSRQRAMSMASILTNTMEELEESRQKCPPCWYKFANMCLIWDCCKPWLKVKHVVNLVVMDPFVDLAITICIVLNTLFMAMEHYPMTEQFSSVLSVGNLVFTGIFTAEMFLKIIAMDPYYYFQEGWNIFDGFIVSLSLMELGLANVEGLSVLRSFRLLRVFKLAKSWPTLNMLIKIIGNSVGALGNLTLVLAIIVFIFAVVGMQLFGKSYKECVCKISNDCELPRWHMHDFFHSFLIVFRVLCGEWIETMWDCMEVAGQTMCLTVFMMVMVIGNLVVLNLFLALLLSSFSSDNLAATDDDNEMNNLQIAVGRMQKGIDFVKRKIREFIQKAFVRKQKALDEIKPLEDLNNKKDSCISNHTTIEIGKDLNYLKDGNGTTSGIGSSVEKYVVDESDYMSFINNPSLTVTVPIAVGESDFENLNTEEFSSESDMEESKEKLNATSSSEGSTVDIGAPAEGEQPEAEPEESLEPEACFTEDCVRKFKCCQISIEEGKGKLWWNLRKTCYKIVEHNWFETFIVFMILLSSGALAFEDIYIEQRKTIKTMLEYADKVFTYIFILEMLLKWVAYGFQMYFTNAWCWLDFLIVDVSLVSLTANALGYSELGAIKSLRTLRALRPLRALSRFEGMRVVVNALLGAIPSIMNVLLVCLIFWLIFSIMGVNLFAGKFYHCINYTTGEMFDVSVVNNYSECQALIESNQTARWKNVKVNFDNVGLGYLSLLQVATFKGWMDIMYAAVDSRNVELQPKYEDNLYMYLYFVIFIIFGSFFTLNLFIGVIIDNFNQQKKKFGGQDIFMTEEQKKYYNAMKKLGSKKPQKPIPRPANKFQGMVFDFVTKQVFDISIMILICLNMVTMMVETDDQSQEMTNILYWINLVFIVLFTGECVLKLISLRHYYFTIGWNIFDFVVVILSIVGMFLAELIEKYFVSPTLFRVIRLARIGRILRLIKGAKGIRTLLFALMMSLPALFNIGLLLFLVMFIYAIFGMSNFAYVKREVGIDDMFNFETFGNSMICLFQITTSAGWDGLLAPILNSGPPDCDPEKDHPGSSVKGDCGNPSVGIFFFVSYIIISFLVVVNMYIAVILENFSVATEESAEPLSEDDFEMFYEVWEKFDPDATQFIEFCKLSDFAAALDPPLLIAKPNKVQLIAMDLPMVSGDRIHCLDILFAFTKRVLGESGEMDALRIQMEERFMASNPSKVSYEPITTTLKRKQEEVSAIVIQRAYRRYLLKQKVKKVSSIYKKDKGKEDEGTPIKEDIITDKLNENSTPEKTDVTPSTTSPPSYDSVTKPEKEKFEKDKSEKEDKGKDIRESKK
Source text: as §1, §2

T1 sequence (Q9UQD0 whole entry): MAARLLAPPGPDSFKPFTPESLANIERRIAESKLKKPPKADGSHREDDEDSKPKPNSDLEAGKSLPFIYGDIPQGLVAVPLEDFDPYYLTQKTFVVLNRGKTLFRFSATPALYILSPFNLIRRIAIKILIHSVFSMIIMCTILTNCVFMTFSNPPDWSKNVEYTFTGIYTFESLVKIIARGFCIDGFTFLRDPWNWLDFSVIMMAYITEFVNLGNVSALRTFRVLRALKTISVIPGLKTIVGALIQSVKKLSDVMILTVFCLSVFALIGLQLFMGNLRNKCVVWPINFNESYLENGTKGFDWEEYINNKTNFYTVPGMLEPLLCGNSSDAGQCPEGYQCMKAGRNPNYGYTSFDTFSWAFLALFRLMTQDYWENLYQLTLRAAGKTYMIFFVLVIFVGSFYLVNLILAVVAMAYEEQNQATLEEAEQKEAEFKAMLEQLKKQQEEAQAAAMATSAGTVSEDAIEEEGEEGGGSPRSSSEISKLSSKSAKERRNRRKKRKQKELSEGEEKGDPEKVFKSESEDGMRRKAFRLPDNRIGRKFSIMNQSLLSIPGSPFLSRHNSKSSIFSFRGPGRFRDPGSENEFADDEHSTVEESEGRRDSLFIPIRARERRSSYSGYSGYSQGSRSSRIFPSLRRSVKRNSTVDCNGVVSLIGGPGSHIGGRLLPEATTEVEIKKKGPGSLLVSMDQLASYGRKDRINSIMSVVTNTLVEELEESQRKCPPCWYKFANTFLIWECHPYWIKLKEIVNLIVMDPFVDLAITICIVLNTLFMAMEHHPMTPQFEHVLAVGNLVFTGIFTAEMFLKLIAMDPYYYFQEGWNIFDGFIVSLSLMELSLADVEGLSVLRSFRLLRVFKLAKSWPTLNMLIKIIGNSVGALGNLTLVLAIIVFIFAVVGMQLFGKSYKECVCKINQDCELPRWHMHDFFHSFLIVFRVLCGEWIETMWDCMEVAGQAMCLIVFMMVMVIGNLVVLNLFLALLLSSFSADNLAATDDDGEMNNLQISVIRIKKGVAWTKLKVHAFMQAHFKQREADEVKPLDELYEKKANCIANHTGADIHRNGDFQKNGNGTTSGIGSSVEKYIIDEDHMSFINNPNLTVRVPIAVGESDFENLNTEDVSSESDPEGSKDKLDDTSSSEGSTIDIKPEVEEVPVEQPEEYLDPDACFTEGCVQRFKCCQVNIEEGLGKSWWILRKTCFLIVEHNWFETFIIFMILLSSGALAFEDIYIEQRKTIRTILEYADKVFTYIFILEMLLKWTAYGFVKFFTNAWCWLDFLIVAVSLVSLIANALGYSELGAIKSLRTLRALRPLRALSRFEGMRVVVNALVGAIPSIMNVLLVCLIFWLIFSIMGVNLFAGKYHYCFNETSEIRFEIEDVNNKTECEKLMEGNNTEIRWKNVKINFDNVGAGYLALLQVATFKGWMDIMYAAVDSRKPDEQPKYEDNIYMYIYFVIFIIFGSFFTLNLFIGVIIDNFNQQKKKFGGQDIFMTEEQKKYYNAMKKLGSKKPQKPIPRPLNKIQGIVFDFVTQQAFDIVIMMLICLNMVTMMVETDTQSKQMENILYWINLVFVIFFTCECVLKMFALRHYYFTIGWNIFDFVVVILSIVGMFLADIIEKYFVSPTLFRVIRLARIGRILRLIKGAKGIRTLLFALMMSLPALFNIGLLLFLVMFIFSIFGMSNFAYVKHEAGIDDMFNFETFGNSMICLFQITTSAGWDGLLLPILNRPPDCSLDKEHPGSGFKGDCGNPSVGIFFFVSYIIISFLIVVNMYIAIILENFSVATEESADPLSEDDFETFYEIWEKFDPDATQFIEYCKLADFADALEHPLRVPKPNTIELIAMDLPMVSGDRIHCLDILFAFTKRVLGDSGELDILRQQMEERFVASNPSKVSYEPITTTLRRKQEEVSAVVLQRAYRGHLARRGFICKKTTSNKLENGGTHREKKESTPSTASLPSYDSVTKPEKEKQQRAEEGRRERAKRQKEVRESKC

With `Cc1cc(S(=O)(=O)Nc2cscn2)c(F)cc1N(C)[C@H]1CCN(Cc2ccccc2)C1` [NBI-921352] the IC50 [1] was 0.051 µM, the “hNav1.6 current in (352)/(Vehicle), mean” value ([1]; -5 Log M) was 0.96 and the “hNav1.6 current in (352)/(Vehicle), mean” value ([1]; -5.47716 Log M) was 0.91. The “hNav1.6 current in (352)/(Vehicle), mean” value ([1]; -5.95429 Log M) was 0.87, the “hNav1.6 current in (352)/(Vehicle), mean” value ([1]; -6.47756 Log M) was 0.83 and the “hNav1.6 current in (352)/(Vehicle), mean” value ([1]; -6.91009 Log M) was 0.68. The “hNav1.6 current in (352)/(Vehicle), mean” value ([1]; -6.95468 Log M) was 0.66, the “hNav1.6 current in (352)/(Vehicle), mean” value ([1]; -7.38722 Log M) was 0.57 and the “hNav1.6 current in (352)/(Vehicle), mean” value ([1]; -7.4318 Log M) was 0.52. The “hNav1.6 current in (352)/(Vehicle), mean” value ([1]; -7.85387 Log M) was 0.25, the “hNav1.6 current in (352)/(Vehicle), mean” value ([1]; -8.30103 Log M) was 0.16 and the “hNav1.6 current in (352)/(Vehicle), mean” value ([1]; -8.39794 Log M) was 0.12. For the same compound, the “hNav1.6 current in (352)/(Vehicle), mean” value ([1]; -9.34679 Log M) was 0.01, the “mNaV1.6 current (352)/(Vehicle)” value ([2]; -5 Log M) was 0.92 and the “mNaV1.6 current (352)/(Vehicle)” value ([2]; -5.47716 Log M) was 0.9. The “mNaV1.6 current (352)/(Vehicle)” value ([2]; -5.95429 Log M) was 0.84, the “mNaV1.6 current (352)/(Vehicle)” value ([2]; -6.91009 Log M) was 0.63 and the “mNaV1.6 current (352)/(Vehicle)” value ([2]; -7.38722 Log M) was 0.48. The “mNaV1.6 current (352)/(Vehicle)” value ([2]; -7.85387 Log M) was 0.27, the “mNaV1.6 current (352)/(Vehicle)” value ([2]; -8.30103 Log M) was 0.12 and the IC50 ([2]; Vh -45 mV) was 0.058 µM. The “hNav1.1 current in (352)/(Vehicle), mean” value ([3]; -4 Log M) was 0.68, the “hNav1.1 current in (352)/(Vehicle), mean” value ([3]; -4.30103 Log M) was 0.57 and the “hNav1.1 current in (352)/(Vehicle), mean” value ([3]; -4.47713 Log M) was 0.44. The “hNav1.1 current in (352)/(Vehicle), mean” value ([3]; -4.77814 Log M) was 0.3, the “hNav1.1 current in (352)/(Vehicle), mean” value ([3]; -4.95425 Log M) was 0.25 and the “hNav1.1 current in (352)/(Vehicle), mean” value ([3]; -5.25524 Log M) was 0.16. The “hNav1.1 current in (352)/(Vehicle), mean” value ([3]; -5.43133 Log M) was 0.12, the “hNav1.1 current in (352)/(Vehicle), mean” value ([3]; -5.73236 Log M) was 0.07 and the “hNav1.1 current in (352)/(Vehicle), mean” value ([3]; -5.90833 Log M) was 0.07. For the same compound, the “hNav1.1 current in (352)/(Vehicle), mean” value ([3]; -6.20971 Log M) was 0.04, the “hNav1.1 current in (352)/(Vehicle), mean” value ([3]; -6.3851 Log M) was 0.03 and the “hNav1.1 current in (352)/(Vehicle), mean” value ([3]; -6.68613 Log M) was 0.05. For the same compound, the “hNav1.1 current in (352)/(Vehicle), mean” value ([3]; -6.86328 Log M) was 0.01, the “hNav1.1 current in (352)/(Vehicle), mean” value ([3]; -7.16115 Log M) was 0.04 and the “hNav1.1 current in (352)/(Vehicle), mean” value ([3]; -7.33724 Log M) was 0. For the same compound, the “hNav1.1 current in (352)/(Vehicle), mean” value ([3]; -7.63827 Log M) was 0.01, the half-life of elimination [4] was “approximately 8.5 hr” and the “mNaV1.1 current (352)/(Vehicle)” value ([5]; -4.22185 Log M) was 0.61. The “mNaV1.1 current (352)/(Vehicle)” value ([5]; -4.69897 Log M) was 0.28, the “mNaV1.1 current (352)/(Vehicle)” value ([5]; -5.17607 Log M) was 0.19 and the “mNaV1.1 current (352)/(Vehicle)” value ([5]; -5.65326 Log M) was 0.12. The “mNaV1.1 current (352)/(Vehicle)” value ([5]; -6.13018 Log M) was 0.05, the “mNaV1.1 current (352)/(Vehicle)” value ([5]; -6.6073 Log M) was -0.03 and the “mNaV1.1 current (352)/(Vehicle)” value ([5]; -7.08619 Log M) was -0.01. The “mNaV1.1 current (352)/(Vehicle)” value ([5]; -7.56864 Log M) was 0, the IC50 ([5]; Vh -45 mV) was 41 µM and the “mNaV1.2 current (352)/(Vehicle)” value ([6]; -4.22185 Log M) was 0.86. The “mNaV1.2 current (352)/(Vehicle)” value ([6]; -4.69897 Log M) was 0.58, the “mNaV1.2 current (352)/(Vehicle)” value ([6]; -5.17607 Log M) was 0.39 and the “mNaV1.2 current (352)/(Vehicle)” value ([6]; -5.65326 Log M) was 0.19. The “mNaV1.2 current (352)/(Vehicle)” value ([6]; -6.13018 Log M) was 0.14, the “mNaV1.2 current (352)/(Vehicle)” value ([6]; -6.6073 Log M) was 0.04 and the “mNaV1.2 current (352)/(Vehicle)” value ([6]; -7.08619 Log M) was 0.08. The “mNaV1.2 current (352)/(Vehicle)” value ([6]; -7.56864 Log M) was 0.05 and the IC50 ([6]; Vh -45 mV) was 11 µM.
